# Test results published in patent US4115385A, “Antibacterial 3-(5-tetrazolyl) penam compounds” (Pfizer Inc., priority 1977, dated 1978).
# System: Streptococcus pyogenes
# Experiment: In vitro minimum inhibitory concentration (MIC) vs. Strep. pyogenes
# Format: cell-based
# Settings: Streptococcus pyogenes, read-out: MIC vs. Strep. pyogenes
# Procedure, shortened: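 Broth inoculated with bacteria and test antibiotic, incubated overnight and read visually; MIC is the lowest concentration preventing turbidity. Test preparations also contain some of the corresponding tetrazole tautomer.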
row,Compound,MIC
1,"CC1(C)S[C@@H]2[C@H](NC(=O)C(C(=O)O)c3ccsc3)C(=O)N2[C@H]1c1nnn[nH]1 (some centres unmarked) [2-carboxy-2-(3-thienyl)acetyl, 6-(2-Carboxy-2-[3-thienyl]acetamido)-2,2-dimethyl-3-(5-tetrazolyl)penam]",0.1 mg/L
2,"CC1(C)S[C@@H]2[C@H](NC(=O)[C@H](NC(=O)NC(=O)c3ccco3)c3ccccc3)C(=O)N2[C@H]1c1nn[nH]n1 [D-2-(3-[2-furoyl]ureido)-2-phenylacetyl, 6-(D-2-[3-(2-Furoyl)ureido]-2-phenylacetamido)-2,2-dimethyl-3-(5-tetrazolyl)penam]",< 0.1 mg/L
3,CC1(C)S[C@@H]2[C@H](NC(=O)[C@H](NC(=O)CNC(=O)c3ccc([N+](=O)[O-])cc3)c3ccccc3)C(=O)N2[C@H]1c1nnn[nH]1,< 0.1 mg/L
4,"CC1(C)S[C@@H]2[C@H](NC(=O)C(C(=O)Oc3ccc4c(c3)CCC4)c3ccccc3)C(=O)N2[C@H]1c1nnn[nH]1 (some centres unmarked) [2-(5-indanyloxycarbonyl)-2-phenylacetyl, 6-(2-[5-Indanyloxycarbonyl]-2-phenylacetamido)-2,2-dimethyl-3-(5-tetrazolyl)penam]",< 0.1 mg/L
5,CC1(C)S[C@@H]2[C@H](NC(=O)[C@H](NC(=O)Nc3ccc(Cl)cc3)c3ccc(O)cc3)C(=O)N2[C@H]1c1nnn[nH]1,< 0.1 mg/L
6,CCSCC(=O)N[C@@H]1C(=O)N2[C@@H]1SC(C)(C)[C@@H]2c1nnn[nH]1 [2-(ethylthio)acetyl],< 0.1 mg/L
7,CC1(C)S[C@@H]2[C@H](NC(=O)[C@H](NC(=O)CCNC(=O)Nc3ccccc3)c3ccccc3)C(=O)N2[C@H]1c1nnn[nH]1,< 0.1 mg/L
8,CC(=O)NC(=O)N[C@@H](C(=O)N[C@@H]1C(=O)N2[C@@H]1SC(C)(C)[C@@H]2c1nn[nH]n1)c1ccccc1 [2-(3-acetylureido)-2-phenylacetyl],< 0.1 mg/L
9,CC1(C)S[C@@H]2[C@H](NC(=O)[C@H](NC(=O)CSC3=NC(=O)CN3)c3ccccc3)C(=O)N2[C@H]1c1nn[nH]n1,0.1 mg/L
10,"CC1(C)S[C@@H]2[C@H](NC(=O)Cc3ccc(CN)cc3)C(=O)N2[C@H]1c1nnn[nH]1 [2-(4-aminomethylphenyl)acetyl, 6-(2-[4-Aminomethylphenyl]acetamido)-2,2-dimethyl-3-(5-tetrazolyl)penam]",< 0.1 mg/L
11,CC1(C)S[C@@H]2[C@H](NC(=O)[C@H](NC(=O)CCNC(=O)c3cccc(Cl)c3)c3ccccc3)C(=O)N2[C@H]1c1nnn[nH]1,< 0.1 mg/L
12,CC(=O)NCC(=O)N[C@@H](C(=O)N[C@@H]1C(=O)N2[C@@H]1SC(C)(C)[C@@H]2c1nn[nH]n1)c1ccccc1,< 0.1 mg/L
13,CC1(C)S[C@@H]2[C@H](NC(=O)[C@H](NC(=O)CNC(=N)c3ccc([N+](=O)[O-])cc3)c3ccccc3)C(=O)N2[C@H]1c1nnn[nH]1,< 0.1 mg/L
14,CCC(=O)NCC(=O)N[C@@H](C(=O)N[C@@H]1C(=O)N2[C@@H]1SC(C)(C)[C@@H]2c1nn[nH]n1)c1ccccc1,< 0.1 mg/L
15,COc1ccc(NC(=O)N[C@@H](C(=O)N[C@@H]2C(=O)N3[C@@H]2SC(C)(C)[C@@H]3c2nnn[nH]2)c2ccc(O)cc2)cc1,< 0.1 mg/L
16,CC1(C)S[C@@H]2[C@H](NC(=O)[C@H](NC(=O)CNC(=N)c3cccc(S(N)(=O)=O)c3)c3ccccc3)C(=O)N2[C@H]1c1nnn[nH]1,< 0.1 mg/L

row,Compound,MIC
1,"CCCS(=O)(=O)N[C@@H](C(=O)N[C@@H]1C(=O)N2[C@@H]1SC(C)(C)[C@@H]2c1nn[nH]n1)c1ccc(O)cc1 [6-(D-2-[Propanesulfonamido]-2-[p-hydroxyphenyl]acetamido-)-2,2-dimethyl-3-(5-tetrazolyl)penam]",0.1 mg/L
2,"CCNC(=O)N[C@@H]1C(=O)N2[C@@H]1SC(C)(C)[C@@H]2c1nnn[nH]1 [3-ethylcarbamoyl, 6-(3-ethylureido)-2,2-dimethyl-3-(5-tetrazolyl)penam]",< 0.1 mg/L
3,"CCOc1ccc2ccccc2c1C(=O)N[C@@H]1C(=O)N2[C@@H]1SC(C)(C)[C@@H]2c1nnn[nH]1 [2-ethoxy-1-naphthoyl, 6-(2-Ethoxy-1-naphthamido)-2,2-dimethyl-3-(5-tetrazolyl)penam]",< 0.1 mg/L
4,CC1(C)S[C@@H]2[C@H](NC(=O)[C@H](NC(=O)NC(=O)C3CC3)c3ccccc3)C(=O)N2[C@H]1c1nn[nH]n1,< 0.1 mg/L
5,CC1(C)S[C@@H]2[C@H](NC(=O)[C@H](NC(=O)CNC(=N)c3cccc(C(N)=O)c3)c3ccccc3)C(=O)N2[C@H]1c1nnn[nH]1,< 0.1 mg/L
6,COc1ccc(C(=O)NCC(=O)N[C@@H](C(=O)N[C@@H]2C(=O)N3[C@@H]2SC(C)(C)[C@@H]3c2nnn[nH]2)c2ccccc2)cc1,0.1 mg/L
7,CC1(C)S[C@@H]2[C@H](NC(=O)CNC(=N)c3cccs3)C(=O)N2[C@H]1c1nnn[nH]1 [2-(2-thiophenecarboxamidino)acetyl],< 0.1 mg/L
8,CC1(C)S[C@@H]2[C@H](NC(=O)[C@H](NC(=O)CNC(=N)c3nc4ccccc4[nH]3)c3ccccc3)C(=O)N2[C@H]1c1nnn[nH]1,< 0.1 mg/L
9,"CC1(C)S[C@@H]2[C@H](NC(=O)[C@H](NC(=O)CNC(=N)c3ccncc3)c3ccc(O)cc3)C(=O)N2[C@H]1c1nnn[nH]1 [6-(D-2-[2-(4-Pyridinecarboxamidino)acetamido]-2-(p-hydroxyphenyl]acetamido)-2,2-dimethyl-3-(5-tetrazolyl)penam]",< 0.1 mg/L
10,"CC1(C)S[C@@H]2[C@H](NC(=O)C(=O)Cc3ccccc3)C(=O)N2[C@H]1c1nnn[nH]1 [phenylpyruvoyl, 6-Phenylpyruvamido-2,2-dimethyl-3-(5-tetrazolyl)penam]",< 0.1 mg/L
11,CC1(C)S[C@@H]2[C@H](NC(=O)[C@H](NC(=O)CNC(=N)c3cnc4ccccc4n3)c3ccccc3)C(=O)N2[C@H]1c1nnn[nH]1,0.1 mg/L
12,CC1(C)S[C@@H]2[C@H](NC(=O)[C@H](NC(=O)CNC(=O)c3ccc(Cl)cc3)c3ccccc3)C(=O)N2[C@H]1c1nnn[nH]1,0.1 mg/L
13,"CC1(C)S[C@@H]2[C@H](NC(=O)CNC(=O)c3ccccc3)C(=O)N2[C@H]1c1nn[nH]n1 [2-(benzamido)acetyl, 6-(2-[Benzamido]acetamido)-2,2-dimethyl-3-(5-tetrazolyl)penam]",0.1 mg/L
14,CC1(C)S[C@@H]2[C@H](NC(=O)[C@H](NC(=O)CCC(=N)N)c3ccccc3)C(=O)N2[C@H]1c1nn[nH]n1,< 0.1 mg/L
15,"CC1(C)S[C@@H]2[C@H](NC(=O)Cc3ccccc3CN)C(=O)N2[C@H]1c1nnn[nH]1 [2-(o-[aminomethyl]phenyl)acetyl, 6-[2-[o-(aminomethyl)phenyl]acetamido]-2,2-dimethyl-3-(5-tetrazolyl)penam]",< 0.1 mg/L
16,"CC1(C)S[C@@H]2[C@H](NC(=O)C(NC(=O)CSC3=NCCN3)c3ccccc3)C(=O)N2[C@H]1c1nn[nH]n1 (some centres unmarked) [6-(2-[2-(Δ^1 -Imidazolin-2-ylthio)acetamido]-2-phenylacetamido)-2,2-dimethyl-3-(5-tetrazolyl)penam]",< 0.1 mg/L

# Same assay, conditions: Streptococcus pyogenes; Table II; two-fold serial dilution, Brain-Heart Infusion broth, overnight; read-out: MIC vs. Strep. pyogenes
row,Compound,MIC
1,CCOC(=O)N[C@@H](C(=O)N[C@@H]1C(=O)N2[C@@H]1SC(C)(C)[C@@H]2c1nnn[nH]1)c1ccccc1 [D-2-(ethoxycarbonylamino)-2-phenylacetyl],6.25 mg/L
2,"CC1(C)S[C@@H]2[C@H](NC(=O)[C@H](NC(=O)COc3ccccc3)c3ccc(O)cc3)C(=O)N2[C@H]1c1nnn[nH]1 [6-(D-2-[2-Phenoxyacetamido]-2-[4-hydroxyphenyl]acetamido)-2,2-dimethyl-3-(5-tetrazol-5-yl)penam]",0.2 mg/L
3,"CC1(C)S[C@@H]2[C@H](NC(=O)C(c3ccccc3)S(=O)(=O)O)C(=O)N2[C@H]1c1nnn[nH]1 (some centres unmarked) [2-sulfo-2-phenylacetyl, 6-(2-Sulfo-2-phenylacetamido)-2,2-dimethyl-3-(5-tetrazolyl)penam]",200 mg/L
4,"CC1(C)S[C@@H]2[C@H](NC(=O)[C@H](NC(=O)C3OC3C(=O)O)c3ccccc3)C(=O)N2[C@H]1c1nnn[nH]1 (stereo partly drawn) [6-(D-2-[4-Carboxy-2,3-propionamido]-2-phenylacetamido)-2,2-dimethyl-3-(5-tetrazol-5-yl)penam]",0.2 mg/L
5,CC1(C)S[C@@H]2[C@H](NC(=O)[C@H](NC(=O)COc3ccccc3)c3ccccc3)C(=O)N2[C@H]1c1nnn[nH]1 [D-2-(2-phenoxyacetamido)-2-phenylacetyl],0.004 mg/L
6,CC1(C)S[C@@H]2[C@H](NC(=O)[C@H](NC(=O)CNC(=O)NC(=N)N)c3ccccc3)C(=O)N2[C@H]1c1nn[nH]n1,3.12 mg/L
7,CC1(C)S[C@@H]2[C@H](NC(=O)[C@H](NC(=O)CCNC(=N)c3ccccc3)c3ccccc3)C(=O)N2[C@H]1c1nnn[nH]1,3.12 mg/L
8,"CC1(C)S[C@@H]2[C@H](NC(=O)/C=C\C(N)=O)C(=O)N2[C@H]1c1nnn[nH]1 [3-(carbamoyl)acryloyl, 6-(3-[Carbamoyl]acrylamido)-2,2-dimethyl-3-(5-tetrazolyl)penam]",< 0.1 mg/L
9,"CC1(C)S[C@@H]2[C@H](NC(=O)CNC(=O)NC(=N)Cc3ccc(Cl)cc3)C(=O)N2[C@H]1c1nnn[nH]1 [6-(2-[3-(2-[p-Chlorophenyl]acetimidoyl)ureido]acetamido)-2,2-dimethyl-3-(5-tetrazolyl)penam]",100 mg/L
10,CC1(C)S[C@@H]2[C@H](NC(=O)[C@H](NC(=O)CNC(=N)c3cc(S(N)(=O)=O)cc(S(N)(=O)=O)c3)c3ccccc3)C(=O)N2[C@H]1c1nnn[nH]1,0.004 mg/L
11,CC1(C)S[C@@H]2[C@H](NC(=O)[C@H](NC(=O)CCNC(=N)c3ccc(Cl)c(Cl)c3)c3ccccc3)C(=O)N2[C@H]1c1nnn[nH]1,0.78 mg/L
12,COc1ccc(S(=O)(=O)N[C@@H](C(=O)N[C@@H]2C(=O)N3[C@@H]2SC(C)(C)[C@@H]3c2nn[nH]n2)c2ccccc2)cc1,0.2 mg/L
13,CC1(C)S[C@@H]2[C@H](NC(=O)[C@H](NC(=O)CNC(=N)c3cc(Cl)cc(S(N)(=O)=O)c3)c3ccccc3)C(=O)N2[C@H]1c1nnn[nH]1,0.004 mg/L
14,CC1(C)S[C@@H]2[C@H](NC(=O)[C@H](NC(=O)CC#N)c3ccccc3)C(=O)N2[C@H]1c1nnn[nH]1 [D-2-(2-cyanoacetamido)-2-phenylacetyl],0.004 mg/L
15,"CCN=C(NCC)SCC(=O)NC(=O)N[C@@H](C(=O)N[C@@H]1C(=O)N2[C@@H]1SC(C)(C)[C@@H]2c1nn[nH]n1)c1ccccc1 [6-(D-2-[3-(2-(N,N'-diethylguanylthio]acetyl)ureido]-2-phenylacetamido)-2,2-dimethyl-3-(5-tetrazolyl)penam]",0.004 mg/L
